Patent publication US20240002499A1, “ANTI-CLIC1 PROTEIN ANTIBODIES AND THE DIAGNOSTIC AND THERAPEUTIC USES THEREOF” (Universita' Degli Studi di Milano, priority 2020, published 2024)
Entries after “also recorded” stand apart in the source; their conditions may differ.

Experiments:
[1] = test system: COLO201; experiment: COLO201 spheroids, 3D culture; format: cell-based; conditions: treated 24 to 96 hours, area normalized on initial area
Experimental: To evaluate whether tmCLIC1omab is able to penetrate across tumor spheroids, a 3D culture was performed. After the complete formation of spheroids, treatments were added and the area was measured every 24 hours up to 96 hours. The area at each time point was then normalized on the initial spheroids' area.
Spheroids were formed with hanging-drop method and then plated in rounded 96 plates coated with 5% of agar. After the complete formation of spheroids, treatments were added and the area was measured every 24 hours up to 96 hours. The area at each time point was then normalized on the initial spheroids' area.

[2] = test system: Metalloproteinase 7 (MMP7); experiment: Western blot of Metalloproteinase 7 in COLO201; format: cell-based; conditions: COLO201, 72 h of treatment
[3] = cited from earlier work
[4] = test system: human glioblastoma cells; experiment: Growth curves of human glioblastoma cells in primary culture; format: cell-based; conditions: glioblastoma cells, FIG. 9
Text: The primary glioblastoma cell lines, already tested for stem cell properties and carcinogenicity, were kindly supplied by Professor T. Florio's laboratory at Genoa University (Genoa, Italy). The cells were obtained from a surgical biopsy performed in the Neurosurgery Department of IRCCS-AOU San Martino IST (Genoa, Italy), from patients who had not received any treatment before the operation. The samples were histologically classified as GB grade IV (according to the WHO classification), and were used after obtaining the patients' informed consent and the approval of the Institutional Ethics Committee (IEC). The cells were cultured in stem cell-permissive medium consisting of Dulbecco's Modified Eagle's Medium (DMEM) and F12-GlutaMAX at the ratio of 1:1, supplemented with 1×B27 (Thermo Fisher Scientific), […] of fibroblast growth factor (FGF, Miltenyi Biotec), […] of human epidermal growth factor (EGF, Miltenyi Biotec) and 1% penicillin/streptomycin (Pen/Strep, […]) (Thermo Fisher Scientific).
The cells were seeded in 24-well plates (20,000 cells/well) and counted after 24, 48, 72 and 96 hours to construct the growth curve. The cells were collected and centrifuged, and the resuspended pellet was diluted 1:1 with Trypan Blue. An automated counter (Countess II, Thermo Fisher Scientific) was used to count the cells. All data were normalized to their controls.

[5] = test system: pMAP38; experiment: Western blot of phosphorylated MAP38 in COLO201; format: cell-based; conditions: COLO201, 72 h of treatment
[6] = test system: human glioblastoma cells; experiment: ROS production in human glioblastoma cells in primary culture; format: cell-based
Experimental: In the subsequent functional experiment, ROS production was measured over time. The graph in FIG. 11 relates to the acquisition of fluorescence signals proportional to the amount of cytoplasmic ROS in glioblastoma cells. The cells were treated with both the antibody and the tmCLIC1 channel blocker.

[7] = test system: COLO201; experiment: Trans well migration and invasion assay; format: cell-based; conditions: COLO201 WT, 72 h
Experimental: The overexpression of tmCLIC1 in the most aggressive cell lines of colorectal cancer and its pivotal role in regulation of cell cycle progression and proliferation, opens a question on the function of tmCLIC1 activity on migration and invasion potential of CRCs, that makes colorectal cancer still uncurable. We performed a Trans well assay to understand whether CLIC1 impairment could affect the migration and invasion potential of COLO201. Cells were plated after 60 hours of serum deprivation on a porous membrane, permeable only to growth factor, in contact to complete medium. The resulting chemo-attractant gradient leads the migrative cells to cross the membranes that are then stained with DAPI to visualize the nuclei. […] For invasion assays, we coated with Matrigel the porous membrane to mimic the extracellular matrix that cells must disrupt to invade tissues and mucosa.
Cells were plated after 60 hours of serum deprivation on a […] porous membrane, permeable only to growth factor, in contact to complete medium. Membranes were cut, stained with DAPI dye, and included with mowiol. Cover glasses were examined under Zeiss Examiner A1 fluorescence microscope with a Zeiss 40×/0.75 NA water immersion lens.

[8] = target: T1, CLIC1 (Homo sapiens, UniProt O00299); experiment: Whole-cell patch clamp on HEK cells transfected with CLIC1 plasmid; format: cell-based; conditions: HEK cells overexpressing CLIC1; voltage steps from −60 to +80 mV; IAA94 50 μM
T1 construct: expressed in transfected cells; host or cells: HEK cells
Experimental: FIG. 17. Current/voltage relationship of CLIC1 membrane current in whole-cell patch clamp experiments. HEK cells were transfected with CLIC1 plasmid to overexpress the CLIC1 protein. After recording control current (filled cycles; n=5) cells were perfused alternatively with the polyclonal antibody (open triangles; n=7), tmCLIComab (inverse open triangles; n=10) and with 50 μM IAA94 (filled squared; n=11). The whole cells current is expressed as a current density.
The reference sequence of the CLIC1 protein used in the experiments described in the present patent application is filed at UniProt under number UniProtKB—000299 (CLIC1 human), and described in the article Harrop S. J. et al., “Crystal structure of a soluble form of the intracellular chloride ion channel CLIC1 (NCC27) at 1.4-Å Resolution”; The Journal of Biological Chemistry, Vol. 276 No. 48, November 30, pp. 44993-45000 (2001).
The potential was set on the basis of the resting potential of each cell (between 0 and −80 mV). The CLIC1-mediated chlorine currents were isolated from other ion currents by mathematical subtraction of the residual current following perfusion of 100 μM IAA94 dissolved in the external solution.

[9] = test system: tumour cells; conditions: both in vitro and in vivo; cited from earlier work
[10] = target: T2, tmCLIC1 ion channel (Mus musculus, UniProt Q9Z1Q5); experiment: Whole-cell patch clamp on BV2 microglial cells with β-amyloid; format: cell-based, mice; conditions: blocker perfused after tmCLIC1omab
T2 construct: endogenous in cells; host or cells: BV-2 mouse microglial cell line
Text: The microglial cells used (BV-2) originated from an immortalised cell line deriving from C57BL/6 mice and commonly marketed. The culture medium used was RPMI (Thermo Fisher Scientific) with the addition of 10% FBS (Euroclone) and 1% Pen/Strep ([…], Thermo Fisher Scientific).
The microelectrodes were obtained from borosilicate capillaries with a diameter of 1.5 mm. Micropipettes were produced with a P-97 Brown-Flaming puller (Sutter Instruments, Novato, CA), with which the capillaries were forged to a tip diameter of 1-1.5 μm and electrical resistance of 5-8 MΩ.
The perforated patch clamp configuration was used for the whole-cell experiments, employing the antibiotic gramicidin (final concentration in pipette 5 μg/ml) which forms pores in the membrane that are only permeable to monovalent cations; in this way, the cytoplasmic concentration of the chloride ion remains unchanged throughout the experiment. The ion currents were digitised at 5 kHz and filtered at 1 kHz. Clampex 9.2 was used as the data acquisition and analysis programme.
In the time-course experiments, the potential was set on the basis of the resting potential of each cell, and a voltage step of +60 mV was applied every 5 seconds. The current measured is that observed at the end of the voltage step lasting 800 ms. When the amplitude of the current reaches a constant value, the antibody and IAA94 are added in sequence. […]

C[C@]1(C2CCCC2)Cc2cc(OCC(=O)O)c(Cl)c(Cl)c2C1=O [IAA94, R(+)-[(6,7-dichloro-2-cyclopentyl-2,3-dihydro-2-methyl-1-oxo-1H-inden-5-yl)-oxy]acetic acid, reference compound]
spheroids' area / proliferation of spheroids versus control [1]: significantly smaller compared to the control from 48 h; also recorded: impair proliferation of spheroids significantly after 48 hours | expression of Metalloproteinase 7 [2]: mainly abolished | usability in vivo / side effects [3]: unusable in vivo for its side effects | growth rate compared with Clic1−/− knockout cells [4]: the same growth rate | expression of pMAP38 [5]: downregulated | fall in ROS production ([6]; FIG. 11 legend, versus control): about fourfold | reduction of the slope of the ROS increase curve ([6]; fluorescence signals proportional to cytoplasmic ROS): about fivefold | migration (number of migrative nuclei) versus control [7]: significant lower number of migrative nuclei | invasion (number of invasive nuclei) versus control ([7]; Matrigel-coated membrane): the same behavior seen for migration assay | inhibition of CLIC1 ionic whole-cell current [8]: maximum inhibition | proliferation of the tumour cells [9]: drastic slowing | further decrease in membrane current after antibody treatment [10]: only generates a minimal decrease in current
